Here are results for 6 compounds from patent US20140275010A1, “QUATERNARY SALTS” (priority 2013, published 2014).

In assay [1] the test system is Ad2 pre-mRNA splicing in HeLa nuclear extract. Description: In vitro splicing (biochemical) assay. As to conditions: in vitro splicing of Ad2 pre-mRNA, 30° C., 90 min, read-out: Biochem IC50. As to the method: In Vitro Splicing (Biochemical) Assay Protocol
Biotin-labeled pre-mRNA of an adenovirus type 2 construct with a deletion of intervening sequence (Ad2)^1 was prepared by in vitro transcription. The Ad2 construct containing Exon 1 (41 nt), Intron (231 nt), and Exon 2 (72 nt) was generated by gene synthesis and cloned into the EcoRI and XbaI sites of pGEM-3Z (Promega) by Genewiz. The plasmid was then linearized by XbaI digestion and purified. In vitro transcription and purification of transcribed pre-mRNA were performed using the MEGAScript T7 kit (Invitrogen) and MEGAclear kit (Invitrogen), respectively, following the manufacturer instructions. The ratio of biotin-16-UTP (Roche) to cold UTP was 1:13 to incorporate approximately two biotin molecules per spliced Ad2 mRNA.
In vitro splicing assay was performed at 30° C. in 25 μL reaction mixtures containing 95 μg HeLa nuclear extract (Promega), 47 nM Ad2 pre-mRNA, 25 U RNasin RNase inhibitor (Promega), 1×SP buffer (0.5 mM ATP, 20 mM creatine phosphate, 1.6 mM MgCl2), and compounds in DMSO (with 1% final concentration of DMSO). After 90 min of incubation, the reaction was stopped by addition of 18 μL of 5M NaCl, and the mixtures were incubated with 10 μL of M-280 streptavidin-coated magnetic beads (Invitrogen) for 30 min at room temperature to capture Ad2 pre- and spliced mRNA. The beads were washed twice with 100 uL buffer containing 10 mM Tris pH=7.5, 1 mM EDTA and 2M NaCl, and then incubated in RNA gel loading buffer containing 95% formamide at 70° C. for 10 min to elute the RNAs. Ad2 RNAs were resolved by 6% TBE-UREA gel, transferred to a nylon membrane, UV cross-linked, and probed with an IR-dye labeled streptavidin (LiCor) using LiCor detection. The amount of spliced RNA was quantified by measuring the band fluorescent intensity using LiCor software.

The test system of assay [2] is WiDr-R cells: Colon cancer cells (chemically-induced SF3B1 mutant which is resistant to E7107 (R1074H mutation)). Description: Cell viability assay (CellTiter-Glo), WiDr-R cells. It counts as cell-based. The conditions noted are these: 72 hr. On the procedure:
(§1) Cells are seeded in 96-well plate with 2000 cells/100 uL/well and incubated overnight. Spent media was removed and fresh media containing compound (100 uL/well) with appropriate 9 concentrations are added. Each compound was treated in duplicate or triplicate manner at each concentration. DMSO concentration was adjusted to be 0.1%. Another plate was dedicated as Tz plate which was added 0.1% DMSO in media (100 uL/well) followed by CellTiter-Glo® (Promega corp., 50 uL/well) for ATP measurement as a surrogate of cell viability. Values from this plate are used as Tz. Compound treated plates are incubated for 72 hr at 37 C. Then, CellTiter-Glo® (50 uL/well) was added and ATP level was measured. Values from compound treated wells are used as Ti and DMSO treated wells are used as C.
(§2) Percentage growth inhibition was calculated as:
(§3) [(Ti−Tz)/(C−Tz)]×100 for concentrations for which Ti>/=Tz
(§4) [(Ti−Tz)/Tz]×100 for concentrations for which Ti<Tz.
(§5) *[time zero, (Tz), control growth (C), and test growth in the presence of drug with dose (Ti)] Growth inhibition of 50% (GI50) was calculated from [(Ti−Tz)/(C−Tz)]×100=50, which was the drug concentration resulting in a 50% reduction in the net protein increase in control cells during the drug incubation. The LC50 (concentration of drug resulting in a 50% reduction in the measured value at the end of the drug treatment as compared to that at the beginning) indicating a net loss of cells following treatment was calculated from [(Ti−Tz)/Tz]×100=−50.
(§6) Emax was defined as highest growth inhibition that particular compound achieved in tested dose range.
(In general: In ATP-based viability assays light output follows the ATP content of the culture.)

The test system of assay [3] is Panc 05.04 cells: Pancreatic cancer cells (Q699H and K700E mutations in SF3B1). Briefly: Cell viability assay (CellTiter-Glo), Panc 05.04 cells. It counts as cell-based. As to conditions: 72 hr; for Gl50 Panc 05.04: Panc 05.04 pancreatic cancer cells, SF3B1 Q699H and K700E, CellTiter-Glo; for Emax Panc 05.04: highest growth inhibition achieved in tested dose range. As to the method: as §1, §2, §3, §4, §5, §6

Assay [4] relates to WiDr cells: Colon cancer cells (wildtype SF3B1). Briefly: Cell viability assay (CellTiter-Glo), WiDr cells. It counts as cell-based. The conditions noted are these: 72 hr. As to the method: as §1, §2, §3, §4, §5, §6
Assay [5] has as its system U251 human glioma cells. The conditions noted are these: U251 human glioma cells in vitro; read-out: IC50, inhibition of glioma cell proliferation; cited from earlier work.
Assay [6] deals with reporter gene controlled by human VEGF promoter. As to conditions: read-out: IC50, inhibition of VEGF-promoted gene expression; cited from earlier work.

On to `CC[C@H](O)[C@@H](C)[C@H]1O[C@@H]1C[C@H](C)/C=C/C=C(\C)[C@H]1OC(=O)C[C@H](O)CC[C@@](C)(O)[C@@H](OC(=O)N2CC[N+](C)(C)CC2)/C=C/[C@@H]1C.[I-]` [Cpd. 2], for which the IC50 in assay [1] stood at 50 nM. Further, in assay [2], the “Gl50 WiDr-R” value is given as greater than 1000 nM. For the same compound, in assay [3], the “Gl50 Panc 05.04” value turned out to be 17.0 nM and the “Emax Panc 05.04” value is on record as −69%. Further, the “Gl50 WiDr” value in assay [4] is on record as 8.9 nM.

Regarding `CC[C@H](O)[C@@H](C)[C@H]1O[C@@H]1C[C@@](C)(O)/C=C/C=C(\C)[C@H]1OC(=O)C[C@H](O)CC[C@@](C)(O)[C@@H](OC(=O)N2CC[N+](C)(C3CCCCCC3)CC2)/C=C/[C@@H]1C.[I-]` [Cpd. 17], in assay [1], the IC50 was less than 100 nM. In addition, the “Gl50 WiDr-R” value in assay [2] was greater than 1000 nM. Further, in assay [3], the “Gl50 Panc 05.04” value came to 607.8 nM and the “Emax Panc 05.04” value is given as −47%. Besides, the “Gl50 WiDr” value in assay [4] was determined as 64.5 nM.

For the compound `CC[C@H](O)[C@@H](C)[C@H]1O[C@@H]1C[C@H](C)/C=C/C=C(\C)[C@H]1OC(=O)C[C@H](O)CC[C@@](C)(O)[C@@H](OC(=O)N2CC[N+](C)(C3CCCCCC3)CC2)/C=C/[C@@H]1C.[I-]` [Cpd. 1], the IC50 in assay [1] came to 10 nM. Besides, in assay [2], the “Gl50 WiDr-R” value stood at 368 nM. Also, in assay [3], the “Gl50 Panc 05.04” value is reported as 0.6 nM and the “Emax Panc 05.04” value is recorded as −61%. Moreover, the “Gl50 WiDr” value in assay [4] is recorded as 1.1 nM.

In the case of `CC[C@H](O)[C@@H](C)[C@H]1O[C@@H]1C[C@H](C)/C=C/C=C(\C)[C@H]1OC(=O)C[C@H](O)CC[C@@](C)(O)[C@@H](OC(=O)N2CC[N+](C)(C(C)C)CC2)/C=C/[C@@H]1C.[I-]` [Cpd. 3], in assay [1], the IC50 turned out to be 60 nM. In addition, the “Gl50 WiDr-R” value in assay [2] was greater than 100 nM. For the same compound, in assay [3], the “Gl50 Panc 05.04” value amounted to 16.2 nM and the “Emax Panc 05.04” value is −66%. Also, the “Gl50 WiDr” value in assay [4] stood at 2.8 nM.

Consider `CC[C@H](O)[C@@H](C)[C@H]1O[C@@H]1C[C@H](C)/C=C/C=C(\C)[C@H]1OC(=O)C[C@H](O)CC[C@@](C)(O)[C@@H](OC(=O)N2CCC[N+](C)(C(C)C)CC2)/C=C/[C@@H]1C.[I-]` (stereo partly drawn) [Cpd. 10], for which the IC50 in assay [1] was determined as 60 nM. For the same compound, the “Gl50 WiDr-R” value in assay [2] is listed as greater than 1000 nM. Also, in assay [3], the “Gl50 Panc 05.04” value was found to be 1.3 nM and the “Emax Panc 05.04” value is reported as −65%. For the same compound, the “Gl50 WiDr” value in assay [4] came to 1.9 nM.

With `CCC(O)C(C)C1OC1CC(C)/C=C/C=C(\C)C1OC(=O)CC(O)CCC(C)(O)C(OC(C)=O)/C=C/C1C` (stereo not drawn) [Pladienolide B], the IC50 was 3.5 nM in assay [5] and 1.8 nM in assay [6].
